Experiments:
mXkr8 mRNA = assay: qRT-PCR of Xkr8 mRNA in cultured murine tumor cells (CT26, Panc02); format: cell-based; conditions: for Xkr8 mRNA expression: 24 h treatment
Description: (§1) To examine the effect of different chemotherapeutic agents on the expression level of Xkr8 mRNA, CT26, Panc02, PANC-1 or HT29 cells were treated with various concentrations of FuOXP, DOX or PTX. Twenty-four h later, cells were collected and subjected to qRT-PCR of mXkr8 or hXkr8 as detailed below.
(§2) To examine the impact of ActD treatment on the expression level of Xkr8 mRNA, CT26 or PANC-1 tumor cells were treated with FuOXP (10 μM) for 12 h followed by addition of ActD (2 μM). At 2 or 4 h following ActD treatment, cells were collected and subjected to qRT-PCR of Xkr8 mRNA as described below. In another study, cells were treated with NAC (2.5 mM) for 12 h followed by treatment with FuOXP, DOX or PTX for another 12 h. qRT-PCR of Xkr8 mRNA was then similarly performed.
(§3) Tumor tissues or cells collected from the above experiments were subjected to RNA extraction by TRIzol™. cDNA was generated from the purified RNA using QuantiTect Reverse Transcription Kit (Qiagen, MD, USA) according to the manufacturer's instructions. Quantitative real-time PCR was performed using SYBR Green Mix on a 7900 HT PCR instrument (Applied Biosystems, MA, USA). Relative target mRNA levels were analyzed using delta-delta-Ct calculations and normalized to GAPDH.

hXkr8 mRNA = assay: qRT-PCR of Xkr8 mRNA in cultured human tumor cells (HT-29, PANC-1); format: cell-based; conditions: for Xkr8 mRNA expression: 24 h treatment
Description: as §1, §2, §3

hXkr8 protein = assay: Western blot of hXkr8 protein in HT29 and PANC-1 cells; format: cell-based, human; conditions: PANC-1 cells; NAC 12 h then drug 12 h
Description: Analysis of hXkr8 protein level by Western blot: Cultured HT29 or PANC-1 cells received similar treatments as described above. Cells were then lysed with RIPA lysis buffer (Thermo Fisher Scientific, MA, USA) by gently shaking on ice for 30 min. After centrifugation at 12,300 RPM for 10 min, the supernatants were collected, and the concentrations of proteins were measured using Pierce BCA Protein Assay Kit (ThermoFisher Scientific, MA, USA). The protein samples were denatured by boiling for 5 min and loaded onto 10% SDS-PAGE gel for electrophoresis. The proteins in the gels were subsequently transferred onto PVDF membranes (Bio-Rad, CA, USA). The membranes were then incubated in blocking buffer (5% non-fat dry milk in TBST) for 1 h at RT, followed by incubation with anti-hXkr8 polyclonal antibody (ThermoFisher Scientific, MA, USA) in antibody dilution buffer (5% BSA in TBST, 1/2000 dilution) with gentle agitation overnight at 4° C. After washing with TBST for three times, the membranes were subsequently incubated with the secondary HRP-linked goat anti-rabbit IgG antibody (Cell Signaling Technology, MA, USA) for 1 h at RT. After another three washes with TBST, the membranes were incubated with Pierce™ ECL Western Blotting Substrate (ThermoFisher Scientific, MA, USA) for 1 min. Protein expression was normalized against β-Tubulin expression.

[1] = system: luciferase in MC38-Luc cells; assay: In vitro luciferase gene knockdown; format: cell-based, murine; conditions: 1 h pretreatment prior to siLUC NP transfection
HUVECa and CT26 cells = assay: Transwell co-culture transcytosis (HUVECa upper, CT26 lower chamber); format: cell-based; conditions: endocytosis inhibitor
Description: To explore a potential role of transcytosis in tumor targeting, a co-culture experiment with HUVECa and CT26 cells using a Transwell plate was conducted.

CT26 tumor cells = assay: Surface PS on CT26 tumor cells and EVs (Annexin V flow); format: cell-based, murine; conditions: CT26 tumor cells in vitro
Description: Effect of Xkr8 knockdown on the PS expression levels of tumor cells and EVs following FuOXP treatment: CT26 cancer cells were first treated with siXkr8 NPs for 72 h and then treated with FuOXP/siXkr8-coloaded NPs for another 24 h. EVs were isolated from culture medium using gradient ultra-centrifugation according to a previously established protocol^48. Briefly, culture medium was collected and centrifuged for 20 min at 1,800 RPM at 4° C. to clear dead cells and cell debris. The supernatant was then transferred to a polycarbonate ultracentrifuge tube and centrifuged at 9,000 RPM for 35 min at 4° C. to collect larger EVs. The supernatant was centrifuged again at 30,000 RPM for 80 min at 4° C. and the pellet was resuspended in 100 μL of PBS for smaller EVs collection. The levels of surface PS on tumor cells and EVs were analyzed by flow using BV421-labeled Annexin V. For detection of EVs by flow cytometry, electronic “Height” (-H) parameter rather than the “Area” (-A) parameter was used to allow optimal signal detection.

## COc1cccc2c1C(=O)c1c(O)c3c(c(O)c1C2=O)C[C@@](O)(C(=O)CO)C[C@@H]3O[C@H]1C[C@H](N)[C@H](O)[C@H](C)O1 [DOX, doxorubicin]
mXkr8 mRNA; CT26 cells
  Xkr8 mRNA expression: Induction
mXkr8 mRNA; Panc02 cells
  Xkr8 mRNA expression: Induction
hXkr8 mRNA; HT-29 cells
  Xkr8 mRNA expression: Induction
hXkr8 mRNA; PANC-1 cells
  Xkr8 mRNA expression: Induction

## CC(=O)N[C@@H](CS)C(=O)O [NAC, N-acetylcysteine]
hXkr8 protein
  effect of pretreatment on Xkr8 protein induction by the 3 drugs: partially attenuated
mXkr8 mRNA; CT26 cells, NAC 12 h then drug 12 h
  effect of pretreatment on Xkr8 mRNA induction by the 3 drugs: partially attenuated
hXkr8 mRNA; PANC-1 cells, NAC 12 h then drug 12 h
  effect of pretreatment on Xkr8 mRNA induction by the 3 drugs: partially attenuated

## CC(=O)O[C@H]1C(=O)[C@@]2(C)[C@H]([C@H](OC(=O)c3ccccc3)[C@]3(O)C[C@H](OC(=O)[C@H](O)[C@@H](NC(=O)c4ccccc4)c4ccccc4)C(C)=C1C3(C)C)[C@]1(OC(C)=O)CO[C@@H]1C[C@@H]2O [PTX, paclitaxel]
mXkr8 mRNA; CT26 cells
  Xkr8 mRNA expression: Induction
mXkr8 mRNA; Panc02 cells
  Xkr8 mRNA expression: Induction
hXkr8 mRNA; HT-29 cells
  Xkr8 mRNA expression: Induction
hXkr8 mRNA; PANC-1 cells
  Xkr8 mRNA expression: Induction

## N=C(N)NC(=O)c1nc(Cl)c(N)nc1N [amiloride]
[1]
  efficiency of silence after inhibitor pretreatment: drastically attenuated

## CN(C)CCCN1c2ccccc2Sc2ccc(Cl)cc21 [chlorpromazine]
[1]
  efficiency of silence after inhibitor pretreatment: drastically attenuated

## C=C1[C@@H](C)[C@H]2[C@H](Cc3ccccc3)NC(=O)[C@]23[C@H](OC(C)=O)/C=C/[C@@](C)(O)C(=O)[C@@H](C)C/C=C/[C@H]3[C@@H]1O [cytochalasin D]
[1]
  efficiency of silence after inhibitor pretreatment: drastically attenuated

## O=C(N/N=C/c1ccc(O)c(O)c1)c1cc2ccccc2cc1O [dynasore]
[1]
  efficiency of silence after inhibitor pretreatment: drastically attenuated
HUVECa and CT26 cells
  effect on transcytosis-mediated transfection of CT26 cells: significantly inhibited

## CCCCC[C@@H](O)[C@H]1C(=O)O[C@H](C)[C@@H](O)/C=C/C=C/C=C/C=C/C=C(\C)[C@@H](O)C[C@H](O)C[C@H](O)C[C@H](O)C[C@H](O)C[C@H](O)C[C@@H]1O [filipin]
[1]
  efficiency of silence after inhibitor pretreatment: drastically attenuated

## siXkr8: Murine Xkr8 siRNA, Seq ID No 1 and 2, siRNA ID 164623 (chain 1 GGCACAAAUUUUAUGCCUG; chain 2 CAGGCAUAAAAUUUGUGCC; RNA, backbone not given here; further chemistry not fully specified; listed as Mus musculus)
CT26 tumor cells
  level of surface PS (Annexin V+ cells): almost abolished
